Test results from patent publication US12053451B2, “Arginase inhibitors and their therapeutic applications” (OncoArendi Therapeutics S.A., priority 2016, dated 2024).
Counter-ions that a name gives are not always drawn.

How the values were obtained:
[1] = molecular target: T1, recombinant human arginase 1 (Homo sapiens, UniProt P05089); assay: Human arginase activity assay (urea measurement), arginase 1; format: biochemical; conditions: recombinant human arginase 1, pH 7.4, 37° C., 60 min; * = value for the most potent diastereoisomer or the mixture of diastereoisomers; read-out: Activity Class (ARG I)
T1 construct: purchased Biolegend 552502
T1 sequence (P05089 1-322): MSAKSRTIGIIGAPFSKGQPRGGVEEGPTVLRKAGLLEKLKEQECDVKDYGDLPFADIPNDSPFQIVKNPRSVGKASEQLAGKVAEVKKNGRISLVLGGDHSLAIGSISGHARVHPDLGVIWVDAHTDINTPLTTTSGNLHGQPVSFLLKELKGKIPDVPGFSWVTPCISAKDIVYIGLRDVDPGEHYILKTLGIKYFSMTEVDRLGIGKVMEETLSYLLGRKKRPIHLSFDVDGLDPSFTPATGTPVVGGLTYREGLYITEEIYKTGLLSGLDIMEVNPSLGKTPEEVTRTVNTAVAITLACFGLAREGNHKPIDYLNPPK
Method: (§1) Human Arginase Activity Assay
The assay was run in the 96-well plate format, each reaction in the total volume of 100 uL. The assay is based on urea measurement, which is a product of L-arginine enzymatic degradation. […] The color product is developed by adding a mixture of reagent A (4 mM oPA in 50 mM boric acid in 1M sulfuric acid, 0.03% Brij-35) and reagent B (4 mM NED in 50 mM boric acid in 1M sulfuric acid, 0.03% Brij-35) in equal proportions. The absorbance for each well was measured at 530 nm.
(§2) For positive control, only the enzyme and substrate were used, the negative controls contained substrate solution with assay buffer. After incubating the microtiter plate at 37° C. for 60 min 150 μL of mixed reagents A and B was added to each well to stop the reaction. Absorbance was measured (λ=530 nm) 20 minutes later, after color development. The urea production in the absence of any compound was considered the maximum arginase activity. The absorbance in the absence of arginase (background) was subtracted from all the values. The normalized OD was used to generate a concentration-response curve by plotting the percent of inhibition against log[concentration] of the compound and using regression analysis (GraphPad Prism 7.0) to compute the IC50 values.

[2] = molecular target: T2, recombinant human arginase 2 (Homo sapiens, UniProt P78540); assay: Human arginase activity assay (urea measurement), arginase 2; format: biochemical; conditions: for selected examples class estimated from % of inhibition at 1 μM and 100 μM, * = most potent diastereoisomer or mixture of diastereoisomers, read-out: Activity Class (ARG II)
T2 construct: made in house; host or cells: CHO
T2 sequence (P78540 23-354): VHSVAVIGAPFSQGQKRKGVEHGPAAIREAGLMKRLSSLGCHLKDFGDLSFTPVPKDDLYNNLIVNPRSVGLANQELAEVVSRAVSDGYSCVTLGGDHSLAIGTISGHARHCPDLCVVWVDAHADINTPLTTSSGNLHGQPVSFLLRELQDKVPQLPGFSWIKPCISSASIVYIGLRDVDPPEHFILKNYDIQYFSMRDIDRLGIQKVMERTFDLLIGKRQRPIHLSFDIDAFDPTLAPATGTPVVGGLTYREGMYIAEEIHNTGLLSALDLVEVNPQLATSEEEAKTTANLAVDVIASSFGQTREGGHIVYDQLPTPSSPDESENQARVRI
Method: as §1
An enzymatic assay with recombinant human arginases 1 (Biolegend, Cat. No. 552502) and 2 (homemade in eukaryotic expression system of CHO, purified by FPLC) was used in order to assess inhibitory activity of the compounds. The assay was run in the 96-well plate format, each reaction in the total volume of 100 uL. The assay is based on urea measurement, which is a product of L-arginine enzymatic degradation. (Baggio et al. J Pharmacol. Exp. Ther. 1999, 290, 1409-1416). The color product is developed by adding a mixture of reagent A (4 mM oPA in 50 mM boric acid in 1M sulfuric acid, 0.03% Brij-35) and reagent B (4 mM NED in 50 mM boric acid in 1M sulfuric acid, 0.03% Brij-35) in equal proportions. The absorbance for each well was measured at 530 nm.
as §2, with “Briefly, to each well of a 96-well microtiter plate 40 μL of enzyme in the reaction assay buffer (pH 7.4, 100 mM sodium phosphate buffer, 130 mM NaCl, 1 mg/mL albumin), 50 μL of the test compound solution and 10 μL of enzyme substrate solution (L-arginine hydrochloride, natural pH 5.6, final concentration 20 mM and a cofactor—manganese chloride, final concentration 150 μM) was added. For” for “For”
(§3) For selected examples the activity class for ARG2 was estimated based on % of inhibition for 1 μM and 100 μM concentration of tested compounds.

[3] = molecular target: T3, intracellular arginase in macrophages isolated from murine bone marrow (BMDM) (Mus musculus, UniProt Q61176); assay: Cell-based assay: intracellular arginase in bone marrow derived macrophages (BMDM), urea level; set-up: species or system Balb/c mice; conditions: murine BMDM with M-CSF and IL-4, urea measured 24 hours after compound; * = most potent diastereoisomer or mixture of diastereoisomers; read-out: Activity Class (BMDM)
T3 construct: endogenous in cells; host or cells: primary bone marrow derived macrophages from Balb/c mice, M-CSF and IL-4 treated
T3 sequence (Q61176 1-323): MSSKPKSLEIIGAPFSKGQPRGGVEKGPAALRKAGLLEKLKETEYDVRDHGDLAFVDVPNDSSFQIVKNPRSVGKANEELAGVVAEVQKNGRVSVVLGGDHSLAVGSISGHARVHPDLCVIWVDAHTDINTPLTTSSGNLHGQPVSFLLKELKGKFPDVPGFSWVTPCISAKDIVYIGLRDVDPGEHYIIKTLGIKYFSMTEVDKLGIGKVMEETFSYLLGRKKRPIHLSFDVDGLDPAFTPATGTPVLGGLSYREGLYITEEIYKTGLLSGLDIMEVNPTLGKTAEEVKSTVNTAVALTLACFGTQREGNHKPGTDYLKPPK
Method: Efficacy of Selected Examples Towards Intracellular Arginase in Macrophages Isolated from Murine Bone Marrow—Bone Marrow Derived Macrophages (BMDM)
Materials & Methods: The assay was performed according to modified literature protocol modification (Pineda-Torra I et al., Methods Mol Biol. 2015; 1339:101-9. Mia S et al. Scand J Immunol. 2014 May; 79(5):305-14). The femurs and tibias were isolated from Balb/c mice. Bones were cleaned from all attached tissues by using sterile swab without affecting the bone structure. Bones were sterilized by immersion in 70% ethanol for 5 min and then rinsed in PBS. The sides of the bones were cut off and flush with cold sterile PBS by using 26-G needle S into a 50 mL sterile tube with a cell strainer (Falcon™, Cat. No. U00149), until bone cavity appeared white. Then the cells were centrifuged (5 min at 500×G, 4° C.), washed twice with PBS and counted. Cells were plated in Petri dish in density of 1×10^6/mL and cultured in DMEM (Gibco, Cat. No. 31331-029) with 10% FBS, 1% pen-strep and 50 ng/mL M-CSF (PeproTech, Cat. No. 315-02), (37° C., 5% CO2). After five days cells were subcultured into P96 plate (BD, Cat. No. 353072) in density of 64 000 cells/well in medium supplemented with 50 ng/mL M-CSF and 20 ng/mL IL-4 (Biomibo Cat. No. 214-1). One day later exemplary compounds (dissolved in PBS) were added in several different concentrations and 24 hours later the level of urea was measured in each well (Jung D et al., Clin Chem. 1975, 21(8):1136-40). The concentration of urea in the absence of any compound was considered as the maximum. The absorbance of cell culture media (background) was subtracted from all the values.
as §3

Row | Structure (SMILES) | IC50 [1] | IC50 [2] | IC50 [3]
1 | N[C@@]1(C(=O)O)CCC[C@@H](CCB(O)O)C1 (racemic) [Example 10, rac-(1S,3R)-1-Amino-3-(2-boronoethyl)cyclohexane-1-carboxylic acid hydrochloride] | 1000 to 10000 nM | 1000 to 10000 nM | 10 to 100 µM
2 | CN(C)C[C@H]1CC[C@@H](CCB(O)O)C[C@]1(N)C(=O)O (racemic) [Example 18, rac-(1R,2R,5R)-1-Amino-5-(2-boronoethyl)-2-((dimethylamino)methyl)-cyclohexane-1-carboxylic acid dihydrochloride] | 100 to 1000 nM | 1000 to 10000 nM | 0.1 to 1 µM
3 | N[C@]1(C(=O)O)C[C@H](CCB(O)O)CC[C@H]1CN1CCCC1 (racemic) [Example 22, rac-(1R,2S,5R)-1-Amino-5-(2-boronoethyl)-2-(pyrrolidin-1-ylmethyl)-cyclohexane-1-carboxylic acid dihydrochloride] | 1 to 100 nM | 100 to 1000 nM | 0.1 to 1 µM
4 | CC1(C)CCN(C[C@@H]2CC[C@@H](CCB(O)O)C[C@]2(N)C(=O)O)CC1 (racemic) [Example 26, rac-(1R,2S,5R)-1-amino-5-(2-boronoethyl)-2-((4,4-dimethylpiperidin-1-yl)methyl)cyclohexanecarboxylic acid dihydrochloride] | 100 to 1000 nM | 100 to 1000 nM | 1 to 10 µM
5 | CN(Cc1ccc(Cl)c(Cl)c1)C[C@@H]1CC[C@@H](CCB(O)O)C[C@]1(N)C(=O)O (racemic) [Example 28, rac-(1R,2S,5R)-1-amino-5-(2-boronoethyl)-2-(((3,4-dichlorobenzyl)(methyl)amino)methyl)cyclohexanecarboxylic acid dihydrochloride] | 100 to 1000 nM | 100 to 1000 nM | 10 to 100 µM
6 | CCN(CC)C[C@@H]1CC[C@@H](CCB(O)O)C[C@]1(N)C(=O)O (racemic) [Example 30, rac-(1R,2S,5R)-1-amino-5-(2-boronoethyl)-2-((diethylamino)methyl)cyclohexanecarboxylic acid dihydrochloride] | 100 to 1000 nM | 100 to 1000 nM | 0.1 to 1 µM
7 | N[C@]1(C(=O)O)C[C@H](CCB(O)O)CC[C@H]1CN1CCCCC1 (racemic) [Example 31, rac-(1R,2S,5R)-1-amino-5-(2-boronoethyl)-2-(piperidin-1-ylmethyl)cyclohexanecarboxylic acid dihydrochloride] | 1 to 100 nM | 100 to 1000 nM | 0.001 to 0.1 µM
8 | N[C@]1(C(=O)O)C[C@H](CCB(O)O)CC[C@H]1CN1CCc2ccccc2C1 (racemic) [Example 35, rac-(1R,2S,5R)-1-amino-5-(2-boronoethyl)-2-((3,4-dihydroisoquinolin-2(1H)-yl)methyl)cyclohexanecarboxylic acid dihydrochloride] | 100 to 1000 nM | 1000 to 10000 nM | 10 to 100 µM
9 | NC[C@@H]1C[C@@H](CCB(O)O)CC(N)(C(=O)O)C1 (mixture of isomers) [Example 54, rac-(3R,5R)-1-amino-3-(aminomethyl)-5-(2-boronoethyl)cyclohexanecarboxylic acid dihydrochloride] | 100 to 1000 nM | 1000 to 10000 nM | 10 to 100 µM
10 | N[C@@]1(C(=O)O)CNC[C@@H](CCB(O)O)C1 (racemic) [Example 57, rac-(3R,5S)-3-amino-5-(2-boronoethyl)piperidine-3-carboxylic acid dihydrochloride] | 1000 to 10000 nM |  | 10 to 100 µM
11 | N[C@@]1(C(=O)O)COC[C@@H](CCB(O)O)C1 (racemic) [Example 61, rac-(3R,5S)-3-amino-5-(2-boronoethyl)tetrahydro-2H-pyran-3-carboxylic acid hydrochloride] | 100 to 1000 nM | 1000 to 10000 nM | 1 to 10 µM
12 | NC1CCC(CCB(O)O)CC1(N)C(=O)O (single isomer, unassigned) [Example 48, 1,2-diamino-5-(2-boronoethyl)cyclohexanecarboxylic acid dihydrochloride] | 100 to 1000 nM | 100 to 1000 nM | 10 to 100 µM
13 | CNC1(C(=O)O)C[C@H](CCB(O)O)CCC1CN (single isomer, unassigned) [Example 68, dihydrochloride] | 10000 to 100000 nM | 10000 to 100000 nM | 10 to 100 µM
14 | N[C@@H](CCCCB(O)O)C(=O)O [Comparative example 1, reference compound] | 100 to 1000 nM | 1000 to 10000 nM | 1 to 10 µM
15 | NC(CCCCB(O)O)(CCNCCCc1ccc(Cl)cc1Cl)C(=O)O (centres unmarked) [Comparative example 2, reference compound] | 1 to 100 nM | 100 to 1000 nM | 1 to 10 µM
